From patent US4154837A, “(Aminoalkoxy-aryl)-substituted isoquinolinones and naphthydrinones and salts thereof, and hypotensive compositions and methods employing them” (Boehringer Ingelheim GmbH, priority 1977, dated 1979)
Read-outs that look alike come from different tables or passages of the source.

Assays:
[1] = tested on: blood circulation of dogs; assay: Effect on blood circulation (arterial blood pressure, heart rate, contractility dp/dt max) in anesthetized dogs; type: in vivo; conditions: for Decrease of contractility, duration / inhibition in vivo at 1 mg/kg / inhibition in vivo at 0.25 mg/kg: left ventricle; for inhibition in vivo at 1 mg/kg / inhibition in vivo at 0.25 mg/kg: Canis lupus familiaris, iv, read-out: Decrease of contractility dp/dt max.
Description: (1.) Effect on blood circulation: The blood circulation tests were performed on dogs with a body weight of 19-30 kg under chloralose-urethane-nembutalanesthesia (54+270+10 mg/kg i.v.). After opening the thorax in the 4th left intercostal space, artificial respiration was applied to the animals with room air by means of an Harvard-Respirator. The arterial blood-pressure was measured in an arteria carotis with a Statham-transducer; the heart rate was measured electronically from the sequence of R-peaks of the electrocardiogram. The maximum rate of pressure increase (dp/dt max) in the left ventricle was measured by means of a Konigsberg pressure-receiver and a Grass differentiation amplifier. All parameters were recorded by means of a direct-writer. For inhibition of coagulation the animals were given 10 mgm/kg of potassium polyethylenesulfonate i.v. in 20% of polydiol. The test compounds were intravenously administered to 4-6 dogs per compound.

[2] = tested on: isolated guinea pig auricle; assay: effect on the force of contraction and frequency of the isolated guinea pig auricle; conditions: Cavia porcellus, 37° C.; for inhibition at 30 µg/mL: 3.10^-5 gm/ml; for inhibition at 10 µg/mL: 10^-5 gm/ml; for inhibition at 3 µg/mL: 3.10^-6 gm/ml; for inhibition at 100 µg/mL: 10^-4 gm/ml
Description: (2.) effect on the force of contraction and frequency of the isolated guinea pig auricle
In spontaneously beating isolated auricles of guinea pigs, which were kept in carbogen-aerated ([…] +5% CO2) Krebs-Henseleit-solution at a temperature of 37° C., and at predetermined concentrations of the test compounds, the maximum developed tension (isometric force of contraction) and the frequency were measured: […]

in vivo = conditions: mouse, mice, observation period 14 days
Description: (3.) determination of acute toxicity
The acute toxicity of the test compounds was determined in mice (observation period: 14 days) after oral or intravenous administration. The LD50 was calculated from the percentage of the animals that dies during the observation period after administration of varying doses: […]

[3] = read-out: Decrease in frequency
[4] = read-out: Decrease in maximum force of contraction

Compound	Decrease in heart rate ([1]; 1.0 mgm/kg i.v.) [beats/min]	Decrease in heart rate, duration ([1]; 1.0 mgm/kg i.v.) [min]	Effect on average arterial blood pressure ([1]; 1.0 mgm/kg i.v.) [mm Hg]	Effect on average arterial blood pressure, duration ([1]; 1.0 mgm/kg i.v.) [min]	Decrease of contractility, duration ([1]; 1.0 mgm/kg i.v.) [min]	inhibition in vivo at 1 mg/kg ([1]; 1.0 mgm/kg i.v.) [%]	inhibition at 30 µg/mL [2, 3] [%]	inhibition at 30 µg/mL [2, 4] [%]	inhibition at 10 µg/mL [2, 3] [%]	inhibition at 10 µg/mL [2, 4] [%]	LD50 at 336 h (in vivo; iv) [mg/kg]	also measured
COc1ccc2cc(-c3ccc(OCC(O)CNC(C)(C)C)cc3)n(C)c(=O)c2c1 (stereo not drawn) [A, 2-methyl-3-[4-(2-hydroxy-3-tert. butylamino-propoxy)-phenyl]-7-methoxy-isoquinolin-1 (2H)-one]	29 ± 15	36	-20 ± 2	50	44	50 ± 10	30	82	23	50	62	LD50 at 336 h (in vivo; po): 460 mg/kg
COc1ccc2cc(-c3ccccc3OCC(O)CNC(C)C)n(C)c(=O)c2c1.O=C(O)C(=O)O (stereo not drawn) [B, 2-methyl-3-[2-(2-hydroxy-3-isopropylamino-propoxy)-phenyl]-7-methoxy-isoquinolin-1 (2H)-one-oxalate]	19 ± 6	50	-24 ± 2	41	47	51 ± 7					47	
COc1ccc(-c2cc3ccc(OC)cc3c(=O)n2C)c(OCC(O)CNC(C)C)c1.O=C(O)C(=O)O (stereo not drawn) [C, 2-methyl-3-[2-(2-hydroxy-3-isopropylamino-propoxy)-4-methoxy-phenyl]-7-methoxy-isoquinolin-1 (2H)-one-oxalate]	38 ± 2	50	-17 ± 3	40	50	53 ± 6			29	29	50	inhibition at 3 µg/mL [2, 3]: 15%; inhibition at 3 µg/mL [2, 4]: 17%; LD50 at 336 h (in vivo; po): 500 mg/kg
COc1ccc(-c2cc3ccc(OC)cc3c(=O)n2C)c(OCC(O)CNC(C)(C)C)c1 (stereo not drawn) [D, 2-methyl-3-[2-(2-hydroxy-3-tert. butylamino-propoxy)-4-methoxy-phenyl]-7-methyoxy-isoquinoline-1 (2H)-one-oxalate]							40	64				Decrease in heart rate ([1]; 0.25 mgm/kg i.v.): 15 ± 5 beats/min; Decrease in heart rate, duration ([1]; 0.25 mgm/kg i.v.): 27 min; Effect on average arterial blood pressure ([1]; 0.25 mgm/kg i.v.): -6 ± 3 mm Hg; Effect on average arterial blood pressure, duration ([1]; 0.25 mgm/kg i.v.): 24 min; Decrease of contractility, duration ([1]; 0.25 mgm/kg i.v.): 28 min; inhibition in vivo at 0.25 mg/kg ([1]; 0.25 mgm/kg i.v.): 36 ± 13%
COc1cc2cc(-c3ccc(OCC(O)CNC(C)(C)C)cc3)n(C)c(=O)c2cc1OC (stereo not drawn) [E, 2-methyl-3-[4-(2-hydroxy-3-tert. butylamino-propoxy)-phenyl]-6,7-dimethoxy-isoquinolin-1 (2H)-one]	25 ± 6	51	-18 ± 11	11	51	52 ± 8	31	54				inhibition at 100 µg/mL [2, 3]: 46%; inhibition at 100 µg/mL [2, 4]: 72%
COc1cc2cc(-c3ccc(OCC(O)CNC(C)C)cc3)n(C)c(=O)c2cc1OC (stereo not drawn) [F, 2-methyl-3-[4-(2-hydroxy-3-isopropylamino-propoxy)-phenyl]-6,7-dimethoxy-isoquinolin-1 (2H)-one]	12 ± 6	31	-7 ± 3	17	43	33 ± 6	29	43	22	30		
COc1ccc2cc(-c3ccc(OCC(O)CNC(C)C)c(OC)c3)n(C)c(=O)c2c1 (stereo not drawn) [G, 2-methyl-3-[3-methoxy-4-(2-hydroxy-3-isopropylamino-propoxy)-phenyl]-7-methoxy-isoquinolin-1 (2H)-one]							37	48	22	35		Decrease in heart rate ([1]; 0.25 mgm/kg i.v.): 37 ± 5 beats/min; Decrease in heart rate, duration ([1]; 0.25 mgm/kg i.v.): 54 min; Effect on average arterial blood pressure ([1]; 0.25 mgm/kg i.v.): -3 ± 2 mm Hg; Effect on average arterial blood pressure, duration ([1]; 0.25 mgm/kg i.v.): 20 min; Decrease of contractility, duration ([1]; 0.25 mgm/kg i.v.): 48 min; inhibition in vivo at 0.25 mg/kg ([1]; 0.25 mgm/kg i.v.): 48 ± 6%
COc1ccc2cc(CCc3ccc(OCC(O)CNC(C)C)cc3)n(C)c(=O)c2c1 (stereo not drawn) [H, 2-methyl-3-[4-(2-hydroxy-3-isopropylamino-propoxy)-phenethyl]-7-methoxy-isoquinolin-1 (2H)-one]	34 ± 10	47	-25 ± 15	20	47	53 ± 13						
